Reference: ChEMBL document CHEMBL1126233, “Derivatives of naphthalimide: new potent conformationally restricted antagonists of 5-HT3 receptors” (Bioorg Med Chem Lett, 1992)

Columns and labels:
[1] = biological target: T1, Serotonin 3 (5-HT3) receptor (Rattus norvegicus, UniProt P35563+Q9JJ16); experiment: Binding affinity at 5-hydroxytryptamine 3 receptor in rat posterior cortex by [3H]-BRL 43694 displacement.; assay type: tissue-based, Brain
T1 sequence (P35563 whole entry): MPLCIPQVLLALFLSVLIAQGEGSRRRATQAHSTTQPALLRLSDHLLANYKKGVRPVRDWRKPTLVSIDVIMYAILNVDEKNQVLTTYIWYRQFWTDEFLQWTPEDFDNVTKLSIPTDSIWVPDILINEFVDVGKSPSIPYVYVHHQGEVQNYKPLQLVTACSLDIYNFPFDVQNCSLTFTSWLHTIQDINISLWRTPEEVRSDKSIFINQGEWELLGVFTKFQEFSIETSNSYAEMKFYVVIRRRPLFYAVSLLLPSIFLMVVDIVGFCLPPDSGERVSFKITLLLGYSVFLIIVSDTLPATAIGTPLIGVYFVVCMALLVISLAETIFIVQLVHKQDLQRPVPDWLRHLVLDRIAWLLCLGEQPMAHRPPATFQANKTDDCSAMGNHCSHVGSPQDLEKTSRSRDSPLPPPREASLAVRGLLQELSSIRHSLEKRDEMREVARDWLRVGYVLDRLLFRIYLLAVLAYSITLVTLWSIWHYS
T1 sequence (Q9JJ16 whole entry): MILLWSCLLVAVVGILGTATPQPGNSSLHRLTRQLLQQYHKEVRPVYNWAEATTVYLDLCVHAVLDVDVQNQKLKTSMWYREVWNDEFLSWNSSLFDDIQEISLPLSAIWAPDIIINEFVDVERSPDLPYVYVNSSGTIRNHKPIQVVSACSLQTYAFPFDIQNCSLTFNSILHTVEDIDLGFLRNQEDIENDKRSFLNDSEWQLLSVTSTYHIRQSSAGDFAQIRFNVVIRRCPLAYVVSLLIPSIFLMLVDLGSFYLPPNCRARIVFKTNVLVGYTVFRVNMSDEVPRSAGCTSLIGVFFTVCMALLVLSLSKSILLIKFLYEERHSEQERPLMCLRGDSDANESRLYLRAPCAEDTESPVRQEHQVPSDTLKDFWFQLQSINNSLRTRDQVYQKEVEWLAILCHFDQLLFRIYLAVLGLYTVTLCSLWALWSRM

Rattus norvegicus [2] = experiment: Antagonism of the bradycardia induced by iv injection of 5-HT(10-30 ug/kg) was evaluated by the compound administration in rat; 3-8; assay type: functional; details: read-out: ID50 (the source's name)
Rattus norvegicus [3] = experiment: Antagonism of the bradycardia induced by iv injection of 5-HT(10-30 ug/kg) was evaluated by the compound administration in rat; 12-55; assay type: functional; details: read-out: ID50 (the source's name)
Rattus norvegicus [4] = experiment: Antagonism of the bradycardia induced by iv injection of 5-HT(10-30 ug/kg) was evaluated by the compound administration in rat; 2.5-3.9; assay type: functional; details: read-out: ID50 (the source's name)
Rattus norvegicus [5] = experiment: Antagonism of the bradycardia induced by iv injection of 5-HT(10-30 ug/kg) was evaluated by the compound administration in rat; 0.3-3.4; assay type: functional; details: read-out: ID50 (the source's name)
Rattus norvegicus [6] = experiment: Antagonism of the bradycardia induced by iv injection of 5-HT(10-30 ug/kg) was evaluated by the compound administration in rat; assay type: functional; details: read-out: ID50 (the source's name)
Rattus norvegicus [7] = experiment: Antagonism of the bradycardia induced by iv injection of 5-HT(10-30 ug/kg) was evaluated by the compound administration in rat; 1.7-74; assay type: functional; details: read-out: ID50 (the source's name)
Rattus norvegicus [8] = experiment: Antagonism of the bradycardia induced by iv injection of 5-HT(10-30 ug/kg) was evaluated by the compound administration in rat; 81-615; assay type: functional; details: read-out: ID50 (the source's name)
Rattus norvegicus [9] = experiment: Antagonism of the bradycardia induced by iv injection of 5-HT(10-30 ug/kg) was evaluated by the compound administration in rat; 0.7-3.6; assay type: functional; details: read-out: ID50 (the source's name)
Rattus norvegicus [10] = experiment: Antagonism of the bradycardia induced by iv injection of 5-HT(10-30 ug/kg) was evaluated by the compound administration in rat; 52-205; assay type: functional; details: read-out: ID50 (the source's name)
Rattus norvegicus [11] = experiment: Antagonism of the bradycardia induced by iv injection of 5-HT(10-30 ug/kg) was evaluated by the compound administration in rat; 8-55; assay type: functional; details: read-out: ID50 (the source's name)
Rattus norvegicus [12] = experiment: Antagonism of the bradycardia induced by iv injection of 5-HT(10-30 ug/kg) was evaluated by the compound administration in rat; 0.05-0.75; assay type: functional; details: read-out: ID50 (the source's name)
Rattus norvegicus [13] = experiment: Antagonism of the bradycardia induced by iv injection of 5-HT(10-30 ug/kg) was evaluated by the compound administration in rat; 3.8-8.7; assay type: functional; details: read-out: ID50 (the source's name)
Rattus norvegicus [14] = experiment: Antagonism of the bradycardia induced by iv injection of 5-HT(10-30 ug/kg) was evaluated by the compound administration in rat; 82-190; assay type: functional; details: read-out: ID50 (the source's name)

`O=C1c2cccc3c([N+](=O)[O-])ccc(c23)C(=O)N1C1CN2CCC1CC2` (centres undefined) showed a Ki [1] of 31 nM and an ED50 (Rattus norvegicus [2]) of 0.00525 mg/kg.

Compound `O=C1c2cccc3cccc(c23)CN1[C@H]1CN2CCC1CC2` has a Ki [1] of 2.3 nM.

`COc1ccccc1C(=O)NC1CN2CCC1CC2` (centres undefined) showed a Ki [1] of 22 nM and an ED50 (Rattus norvegicus [3]) of 0.025 mg/kg.

Compound `Nc1ccc2c3c(cccc13)C(=O)N(C1CN3CCC1CC3)C2=O` (centres undefined) has a Ki [1] of 0.5 nM and an ED50 (Rattus norvegicus [4]) of 0.003 mg/kg.

`COc1cc(N)c(Cl)cc1C(=O)N[C@H]1CN2CCC1CC2` [(R)ZACOPRIDE] showed a Ki [1] of 2.6 nM and an ED50 (Rattus norvegicus [5]) of 0.001 mg/kg.

With `O=c1[nH]c2ccc(Cl)cc2c(=O)n1C1CN2CCC1CC2` (centres undefined) the Ki [1] was 30 nM and the ED50 (Rattus norvegicus [6]) was 0.08 mg/kg.

In the case of `O=C1c2cccc3cccc(c23)C(=O)N1C1CN2CCC1CC2` (centres undefined), the Ki [1] is reported as 2.7 nM and the ED50 (Rattus norvegicus [7]) is reported as 0.011 mg/kg.

Compound `O=C1c2cccc3cccc(c23)C(=O)N1[C@@H]1CN2CCC1CC2` has a Ki [1] of 61 nM and an ED50 (Rattus norvegicus [8]) of 0.224 mg/kg.

In the case of `Nc1ccc2c3c(cccc13)C(=O)N([C@H]1CN3CCC1CC3)C2=O`, the Ki [1] is reported as 0.15 nM and the ED50 (Rattus norvegicus [9]) is reported as 0.0016 mg/kg.

Work on `O=c1[nH]c2ccccc2c(=O)n1C1CN2CCC1CC2` (centres undefined) yielded a Ki [1] of 80 nM and an ED50 (Rattus norvegicus [10]) of 0.103 mg/kg.

With `Nc1ccc2c3c(cccc13)C(=O)N([C@@H]1CN3CCC1CC3)C2=O` the Ki [1] was 23.5 nM and the ED50 (Rattus norvegicus [11]) was 0.021 mg/kg.

Work on `COc1cc(N)c(Cl)cc1C(=O)N[C@@H]1CN2CCC1CC2` yielded a Ki [1] of 0.2 nM and an ED50 (Rattus norvegicus [12]) of 0.0002 mg/kg.

`O=C1c2cccc3cccc(c23)CN1[C@@H]1CN2CCC1CC2` gave a Ki [1] of 2.2 nM.

Work on `CN1CCC(N2C(=O)c3cccc4cccc(c34)C2=O)CC1` yielded a Ki [1] of 15 nM and an ED50 (Rattus norvegicus [6]) of 0.5 mg/kg.

In the case of `O=C1c2cccc3cccc(c23)C(=O)N1[C@H]1CN2CCC1CC2`, the Ki [1] is reported as 0.9 nM and the ED50 (Rattus norvegicus [13]) is reported as 0.0057 mg/kg.

With `O=C1c2cccc3c(Br)ccc(c23)C(=O)N1C1CN2CCC1CC2` (centres undefined) the Ki [1] was 41 nM and the ED50 (Rattus norvegicus [6]) was > 0.25 mg/kg.

`O=C1c2cccc3c(Cl)ccc(c23)C(=O)N1C1CN2CCC1CC2` (centres undefined) showed a Ki [1] of 14 nM and an ED50 (Rattus norvegicus [14]) of 0.125 mg/kg.

`CN1C2CCC1CC(N1C(=O)c3cccc4cccc(c34)C1=O)C2` (centres undefined) was tested, and the Ki [1] was 374 nM and the ED50 (Rattus norvegicus [6]) was > 0.25 mg/kg.
